Data on two molecules can be found in US11072588B2, “Barbituric acid derivatives comprising cationic and lipophilic groups” (UNIVERSITETET I TROMSØ—NORGES ARKTISKE UNIVERSITET, priority 2017, dated 2021).

≈ marks a conversion by molar mass, not a printed value.

What all share (format): cell-based
Experiment [1] has as its system human metastatic melanoma (A2058, ATCC CRL-11147) cells. Nature of the experiment: Anti-cancer activity against A2058 cells. The settings on record: A2058, read-out: Anti-cancer IC50. The method, then:
Cytotoxicity of the test compounds was evaluated after 72 hour exposure to human metastatic melanoma (A2058, ATCC CRL-11147) cells.
A2058 cells were grown overnight (2,000 cells/well), and then incubated with the test compounds (range of concentrations) diluted in MEM Earle's supplemented with gentamycin (10 μg/mL), non-essential amino acids (1%), sodium pyruvate (1 mM), L-alanyl-Lglutamine (2 mM), but without FBS (total volume was 100 μl) for […]. Ten μL of CellTiter 96® AQueous One Solution Reagent (Promega, Madison, Wis., USA) was added, and the plates were then further incubated for 1 hour.
Absorbance was measured at 485 nm in a DTX 880 Multimode Detector. Results were calculated as % survival compared to negative (assay media) and positive (Triton X-100; Sigma-Aldrich) controls.

For experiment [2], the system named is Corynebacterium glutamicum ATCC 13032. As to the kind of experiment: MIC assay, antibiotic susceptible reference strain. The settings on record: ATCC13032; Corynebacterium glutamicum ATCC 13032; read-out: Antimicrobial activity (MIC) C. g. The protocol: (§1) Working solutions of the test derivatives were prepared with up to 100% DMSO and stored at −20° C. If necessary, the solutions were heated to 40-80° C. before testing to facilitate complete dissolution. Double-distilled water was used in all dilutions prepared. […] A microdilution susceptibility test was used for MIC determination according to Clinical and Laboratory Standards Institute, “Methods for Dilution Antimicrobial Sisceptibility Tests for Bacteria That Graw Aerobically”, Approved Standard M07-A9, edition 2012, with modifications as described by Igumnova et al (Bioorg Med Chem, 2016, 24 (22), 5884-5894).
(§2) Briefly, the bacterial inoculum was adjusted to approximately 2.5-3×10^4 cells/mL in Mueller-Hinton broth (MHB, Difco Laboratories, USA), and incubated in a ratio of 1:1 with test derivatives in polystyrene 96-well flat-bottom microplates (NUNC, Roskilde, Denmark). Positive growth control (without test derivatives) and negative control (without bacteria) were included. The reference antibiotic was oxytetracycline hydrochloride (Sigma Aldrich, Saint Louis, Mo., USA). The microplates were incubated in an EnVision microplate reader (Perkin-Elmer, Turku, Finland) placed in an incubator set to 35° C. for 48 h. The MIC value was defined as the lowest concentration of derivative resulting in no bacterial growth as determined by OD600 measurement. All derivatives were tested in three parallels.

Experiment [3] has as its system Escherichia coli ATCC 25922. As to the kind of experiment: MIC assay, antibiotic susceptible reference strain. The note with it: ATCC25922; Escherichia coli ATCC 25922; read-out: Antimicrobial activity (MIC) E. c. The method, then: as §1, §2
For experiment [4], the system named is Staphylococcus aureus ATCC 9144. Nature of the experiment: MIC assay, antibiotic susceptible reference strain. The note with it: ATCC9144; Staphylococcus aureus ATCC 9144; read-out: Antimicrobial activity (MIC) S. a. The protocol:
as §1, §2

Experiment [5] deals with Pseudomonas aeruginosa PA01, DSM 19880 (ATCC 15692). Nature of the experiment: MIC assay, antibiotic susceptible reference strain. The settings on record: Pseudomonas aeruginosa PA01, DSM 19880 (ATCC 15692); read-out: Antimicrobial activity (MIC) P. a. The protocol: as §1, §2

Usually IC50 stands for the point on the concentration scale where inhibition reaches its midpoint. The term MIC denotes the lowest concentration found to suppress growth.

As to `NCCCCN1C(=O)N(CCCCN)C(=O)C(CCCc2ccccc2)(CCCc2ccccc2)C1=O` [Compound 9], the half-maximal inhibitory concentration (IC50) in experiment [1] worked out at 2.9 µg/mL (≈ 5.72 µM).

Consider `CN(C)[C@@H]1C(O)=C(C(N)=O)C(=O)[C@@]2(O)C(O)=C3C(=O)c4c(O)cccc4[C@@](C)(O)[C@H]3[C@H](O)[C@@H]12` [Oxytetracycline, reference compound], for which the MIC in experiment [2] turned out to be 0.65 µg/mL (≈ 1.41 µM); in experiment [3], 2.5 µg/mL (≈ 5.43 µM); in experiment [4], 0.65 µg/mL (≈ 1.41 µM); in experiment [5] it was 20 µg/mL (≈ 43.4 µM).
